Laboratory results reported in patent US20120004222A1, “CB2 RECEPTOR LIGANDS FOR THE TREATMENT OF PAIN” (priority 2007, published 2012).

The compounds below were run against T1, human CB2 (Homo sapiens, UniProt P34972) (assay: Cyclic AMP assay (HTRF) in CHO cells expressing human CB2). Conditions: not given.
T1 construct: expressed in transfected cells; host or cells: CHO (Chinese Hamster Ovary) cells
Assay type: cell-based
Description: Chinese Hamster Ovary cells (CHO) expressing human CB1 or human CB2 (3.3×10^5 cells/ml) were preincubated for 15 min at room temperature with tested agonist and 3-isobutyl-1-methylxanthine (IBMX; 200 μM) in phosphate buffered saline containing 1 mg/ml BSA (assay buffer) followed by 30 min incubation with forskolin in a total volume of 10 μl. The optimal forskolin concentration for each cell line was established in a separate experiment and adjusted to stimulate 70% of maximal cAMP response. cAMP content was measured using an HTRF assay (CisBio) according to the manufacturer's two step protocol.

T1 sequence (P34972 whole entry): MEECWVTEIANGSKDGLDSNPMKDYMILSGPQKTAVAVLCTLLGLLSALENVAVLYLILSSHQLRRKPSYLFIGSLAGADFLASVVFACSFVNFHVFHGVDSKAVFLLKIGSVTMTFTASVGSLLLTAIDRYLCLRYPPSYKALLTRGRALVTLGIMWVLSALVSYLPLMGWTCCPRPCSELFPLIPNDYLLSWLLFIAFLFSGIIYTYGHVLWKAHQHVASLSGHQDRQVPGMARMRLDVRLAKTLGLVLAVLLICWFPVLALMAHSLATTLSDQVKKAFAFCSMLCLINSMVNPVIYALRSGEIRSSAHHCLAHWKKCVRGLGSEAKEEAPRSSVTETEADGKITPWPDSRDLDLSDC

Compound	IC50 [nM]
FC1(F)CCN(Cc2nc(-c3nc(-c4ccccc4)c[nH]3)n3ccccc23)CC1 [Example II-1, 1-[(4,4-difluoropiperidin-1-yl)methyl]-3-(4-phenyl-1H-imidazol-2-yl)imidazo[1,5-a]pyridine]	178
FC1(F)CCN(Cc2nc(-c3cccc(C(F)(F)F)c3)n3ccccc23)CC1 [Example IV-1, 1-[(4,4-difluoropiperidin-1-yl)methyl]-3-[3-(trifluoromethyl)phenyl]imidazo[1,5-α]pyridine]	17
CC(C)(O)CCc1ccc(-c2nc(CN3CCC(F)(F)CC3)c3ccccn23)cc1 [IV-6, 4-(4-{1-[(4,4-DIFLUOROPIPERIDIN-1- YL)METHYL]IMIDAZO[1,5-A]PYRIDIN-3- YL}PHENYL)-2-METHYLBUTAN-2-OL]	1350

Same assay, conditions: CHO cells expressing human CB2; forskolin-stimulated cAMP, IBMX 200 μM; read-out: CB2 IC50

Compound	IC50 [nM]
c1ccc2[nH]c(-c3nc(CN4CCOCC4)c4ccccn34)nc2c1 [Example I-1, 2-[1-(morpholin-4-ylmethyl)imidazo[1,5-a]pyridin-3-yl]-1H-benzimidazole]	1260
Fc1ccc(-c2cc(-c3nc(CN4CCOCC4)c4ccccn34)[nH]n2)cc1 [Example III-1, 3-[3-(4-fluorophenyl)-1H-pyrazol-5-yl]-1-(morpholin-4-ylmethyl)imidazo[1,5-a]pyridine]	617
FC1(F)CCN(Cc2nc(-c3nc(-c4ccc(Cl)cc4)c[nH]3)n3ccccc23)CC1 [II-2, 3-[4-(4-CHLOROPHENYL)-1H-IMIDAZOL-2- YL]-1-[(4,4-DIFLUOROPIPERIDIN-1- YL)METHYL]IMIDAZO[1,5-A]PYRIDINE]	199
FC1(F)CCN(Cc2nc(-c3nc(-c4ccc(Cl)cc4Cl)c[nH]3)n3ccccc23)CC1 [II-3, 3-[4-(2,4-DICHLOROPHENYL)-1H- IMIDAZOL-2-YL]-1-[(4,4- DIFLUOROPIPERIDIN-1- YL)METHYL]IMIDAZO[1,5-A]PYRIDINE]	146
Fc1ccc(-c2c[nH]c(-c3nc(CN4CCC(F)(F)CC4)c4ccccn34)n2)cc1F [II-4, 3-[4-(3,4-DIFLUOROPHENYL)-1H- IMIDAZOL-2-YL]-1-[(4,4- DIFLUOROPIPERIDIN-1-YL)METHYL] IMIDAZO[1,5-A]PYRIDINE]	171
FC1(F)CCN(Cc2nc(-c3nc(-c4cccc(C(F)(F)F)c4)c[nH]3)n3ccccc23)CC1 [II-5, 1-[(4,4-DIFLUOROPIPERIDIN-1- YL)METHYL]-3-{4-[3- (TRIFLUOROMETHYL)PHENYL]-1H- IMIDAZOL-2-YL}IMIDAZO [1,5-A]PYRIDINE]	165
FC1(F)CCN(Cc2nc(-c3ccc(-c4ccn[nH]4)cc3)n3ccccc23)CC1 [IV-4, 1-[(4,4-DIFLUOROPIPERIDIN-1- YL)METHYL]-3-[4-(1H-PYRAZOL-5- YL)PHENYL]IMIDAZO[1,5-A]PYRIDINE]	116
FC1(F)CCN(Cc2nc(-c3cccc(-n4cccn4)c3)n3ccccc23)CC1 [IV-7, 1-[(4,4-DIFLUOROPIPERIDIN-1- YL)METHYL]-3-[3-(1H-PYRAZOL-1- YL)PHENYL]IMIDAZO[1,5-A]PYRIDINE]	113
